Columns and labels:
GRK2 = assay: LPS-induced GRK2 level in neutrophils (western blotting); format: cell-based, mice; conditions: WT neutrophils, LPS 1 μg/ml; CAY10594 at 10 μM; FIG. 18B, FIG. 19
Experimental: First, neutrophils were isolated from the bone marrow of WT or PLD2 knockout (KO) mice and stimulated with 1 μg/ml of LPS for 1 hour, and then GRK2 levels were analyzed by western blotting.
Afterward, neutrophils isolated from the bone marrow of the WT mice were cultured with 10 μM of a vehicle (0.5% Tween 80 in PBS) or a PLD2 inhibitor (CAY10594) before being cultured with LPS (1 μg/ml), and then GRK2 levels were analyzed by western blotting.
The control of LPS-induced GRK2 expression by an inhibitor for an intracellular signaling pathway (BAY11-7082) was analyzed by western blotting.

CXCR2 = CXCR2 surface expression in LPS-stimulated neutrophils (flow cytometry); format: cell-based, mice; conditions: WT neutrophils, LPS 1 μg/ml; FIG. 17D, FIG. 20A
[1] = system: neutrophils isolated from the bone marrow of WT mice; assay: CXCL2-induced chemotactic migration of LPS-stimulated neutrophils; format: cell-based; conditions: LPS 1 μg/ml, FIG. 20B
PLD2 knockout (KO) mice = assay: Survival rate of PLD2 knockout (KO) mice after CLP surgery with CXCR2 antagonist treatment; format: in vivo; conditions: treated with the CXCR2 antagonist, FIG. 21
Experimental: (§1) C57Bl/6 mice were obtained from Orient Bio (Seongnam, Korea). PLD2 knockout (KO) mice were prepared by the method described in a previous study (Ghim, J., J. S. Moon, C. S. Lee, J. Lee, P. Song, A. Lee, J. H. Jang, D. Kim, J. H. Yoon, Y. J. Koh, C. Chelakkot, B. J. Kang, J. M. Kim, K. L. Kim, Y. R. Yang, Y. Kim, S. H. Kim, D. Hwang, P. G. Suh, G. Y. Koh, Y. Y. Kong, and S. H. Ryu, 2014, “Endothelial deletion of phospholipase D2 reduces hypoxic response and pathological angiogenesis,” Arterioscler. Thromb. Vasc. Biol., 34:1697-1703.) All experiments involving animals received the approval of the Institutional Review Committee for Animal Care and Use at the medical school of Sungkyunkwan University. Cecal ligation and puncture (CLP) sepsis models were prepared by the method described in a previous study (Kim, S. D., H. Y. Lee, J. W. Shim, H. J. Kim, Y. H. Yoo, J. S. Park, S. H. Baek, B. A. Zabel, and Y. S. Bae, 2011, “Activation of CXCR2 by extracellular matrix degradation product acetylated Pro-Gly-Pro has therapeutic effects against sepsis,” Am. J. Respir. Crit. Care Med., 184:243-251.) That is, mice were anesthetized with 50 mg/kg of Zoletil and 10 mg/kg of Rompun through intraperitoneal injection, and an abdominal midline incision was made to expose the cecum. […]

CLP mice = assay: Survival rate in CLP-induced sepsis models, WT mice; format: in vivo; conditions: WT mice after CLP surgery; 10 mg/kg subcutaneous at 2, 14, 26 and 38 hours; monitored for 10 days; FIG. 1B
Experimental: as §1

[2] = system: spleen cells isolated from the WT mice; assay: LPS-induced inflammatory cytokine/chemokine production in spleen cells (ELISA); format: cell-based; conditions: 10 μM for 30 minutes before LPS (1 μg/ml) for 24 hours; compared with vehicle; FIG. 5B
Experimental: Spleen cells (3×10^6 cells/0.3 ml) isolated from WT or PLD2 knockout (KO) mice were cultured in RPMI 1640 medium containing 5% fetal bovine serum (FBS) in 96-well plates and placed in a 5% CO2 incubator at 37° C. Afterward, the spleen cells were incubated with LPS (1 μg/ml) for 24 hours, and the expression of cytokines and chemokines in the spleen cells was measured by ELISA (e-Bioscience, San Diego, Calif.).
Additionally, to examine the effect of a PLD2 inhibitor on cytokine and chemokine production, before additional culturing with LPS (1 μg/ml) for 24 hours, the spleen cells isolated from the WT mice were cultured with 10 μM of a vehicle (0.5% Tween 80 in PBS) or a PLD2 inhibitor (CAY10594) for 30 minutes. A cell-free supernatant was collected and centrifuged, and the cytokines and the chemokines were detected by ELISA (e-Bioscience, San Diego, Calif.) according to the manufacturer's instructions.

[3] = system: neutrophils isolated from the bone marrow of the WT mice; assay: NET formation in ionomycin-stimulated neutrophils (SYTOX Green staining); format: cell-based; conditions: 10 μM, then 5 μM ionomycin, FIG. 10B
Experimental: Neutrophils were isolated from the bone marrow of the WT or PLD2 knockout (KO) mice. More particularly, bone marrow cells were isolated from a femur and a tibia using an HBSS-EDTA solvent. A cell suspension was centrifuged at 400 g for 10 minutes, resuspended cells were loaded onto 52%, 69%, and 78% Percoll gradients, and centrifuged at 1500 g for 30 minutes without breaking. The cells were isolated on a 69%/78% interface layer, and RBCs were removed by hypotonic lysis. 95% or more of the isolated cells were identified to be Ly6G-positive using a flow cytometer. The isolated neutrophils (1×10^5 cells) were seeded on 0.001% poly-lysine-coated 12-mm cover slips of 24-well plates, and stimulated with 5 μM ionomycin. Afterward, the cells were fixed with 4% paraformaldehyde and stained by SYTOX Green nucleic acid staining (5 μM). The NET was visualized using a Zeiss Axiovert fluorescent microscope (Zeiss, Oberkochen, Germany), and images were taken by a Nikon Digital camera.
Additionally, to confirm the variations of NET formation when a PLD2 inhibitor was treated, neutrophils isolated from the bone marrow of the WT mice were cultured with 10 μM of a vehicle (0.5% Tween 80 in PBS) or a PLD2 inhibitor (CAY10594), and then stimulated with 5 μM ionomycin.

WT neutrophils = assay: Ionomycin-induced intracellular calcium mobilization (Fura-2/AM); format: cell-based, mice; conditions: 10 μM before 5 μM ionomycin, FIG. 15
Experimental: Subsequently, for individual analysis, the cells were aliquoted (2×10^6 cells/1 ml of Locke's solution containing 154 mM NaCl, 5.6 mM KCl, 1.2 mM MgCl2, 5 mM HEPES [pH 7.3], 10 mM glucose, and 2 mM CaCl2). Afterward, the cells were stimulated with 5 μM ionomycin. Meanwhile, to check the case of the treatment with a PLD2 inhibitor, the cells aliquoted from the WT mouse were cultured with 10 μM of a vehicle (0.5% Tween 80 in PBS) or a PLD2 inhibitor (CAY10594) before being stimulated with ionomycin. A fluorescence change at an emission wavelength of 500 nm was measured using an RF-5301PC spectrofluorophotometer (Shimadzu Instruments Inc., Kyoto, Japan) at excitation wavelengths of 340 nm and 380 nm A [Ca^2+]i increase causes an increase in the fluorescence ratio at an excitation efficiency of 340 to 380 nm, and [Ca^2+]i was calculated using the fluorescence ratio according to Equation 5 of Grynkiewicz et al (Grynkiewicz et al., 1985).

| SMILES | upregulation of LPS-induced GRK2 / LPS-induced GRK2 expression (GRK2) | downregulation of LPS-induced CXCR2 (CXCR2) | CXCL2-induced chemotactic migration of the neutrophils by LPS stimulation [1] | survival of PLD2 knockout (KO) mice after CLP surgery (PLD2 knockout (KO) mice) | survival rate (CLP mice) [%] | CCL5 secretion [2] | CXCL1 secretion [2] | IL-1β secretion [2] | IL-6 secretion [2] | TNF-α secretion [2] | NET formation caused by ionomycin stimulation [3] | ionomycin-induced intracellular calcium mobilization (WT neutrophils) |
| --- | --- | --- | --- | --- | --- | --- | --- | --- | --- | --- | --- | --- |
| Cc1ccc(S(=O)(=O)/C=C/C#N)cc1 [BAY11-7082] | completely inhibited | significantly diminished | partially but significantly recovered | – | – | – | – | – | – | – | – | – |
| O=C(Nc1ccc([N+](=O)[O-])cc1O)Nc1ccccc1Br [SB225002] | – | – | – | all of the mice died | – | – | – | – | – | – | – | – |
| O=C(NCCN1CCC2(CC1)C(=O)NCN2c1ccccc1)c1ccc2ccccc2c1 [CAY10594, N-[2-(4-oxo-1-phenyl-1,3,8-triazaspiro[4,5]decan-8-yl)ethyl]-2-naphthalenecarboxamide] | blocked | recovered | – | – | 40 | considerably decreased | considerably decreased | considerably decreased | considerably decreased | considerably decreased | increased | improved |

From patent US20160271114A1, “Composition for preventing or treating bacterial infectious disease comprising phospholipase D2 inhibitor” (RESEARCH & BUSINESS FOUNDATION SUNGKYUNKWAN UNIVERSITY, priority 2015, published 2016)
